Test results reported in ChEMBL document CHEMBL1201862, “PubChem BioAssay data set” (2004).
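48-hour exposure; five concentrations; linearly interpolated endpoints. GI50 marks 50% less growth.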 The source made the active and inactive calls. Rule as the data show it: active = GI50 up to about 1.1 µM and inactive = higher.

Legend:
Experiment in all cases: DTP human tumour cell line panel, 48 h
Hs-578T = system: Hs-578T
UO-31 = system: UO-31
A498 = system: A498
SNB-75 = system: SNB-75
HL-60 = system: HL-60
CAKI-1 = system: CAKI-1
HCT-116 = system: HCT-116
EKVX = system: EKVX
DU-145 = system: DU-145
ACHN = system: ACHN
SK-MEL-28 = system: SK-MEL-28
MDA-MB-435 = system: MDA-MB-435
SK-MEL-2 = system: SK-MEL-2
786-0 = system: 786-0
OVCAR-3 = system: OVCAR-3
MOLT-4 = system: MOLT-4
OVCAR-8 = system: OVCAR-8
UACC-62 = system: UACC-62
CCRF-CEM = system: CCRF-CEM
SF-295 = system: SF-295
NCI-H226 = system: NCI-H226
Malme-3M = system: Malme-3M
MCF7 = system: MCF7
TK-10 = system: TK-10
UACC-257 = system: UACC-257
HOP-62 = system: HOP-62
MDA-MB-231 = system: MDA-MB-231
HT-29 = system: HT-29
RXF 393 = system: RXF 393
HCT-15 = system: HCT-15
SF-268 = system: SF-268
KM12 = system: KM12
NCI-H522 = system: NCI-H522
SNB-19 = system: SNB-19
SN12C = system: SN12C
M14 = system: M14
NCI-H460 = system: NCI-H460
A549 = system: A549
HCC 2998 = system: HCC 2998
OVCAR-5 = system: OVCAR-5
SK-MEL-5 = system: SK-MEL-5
COLO 205 = system: COLO 205
IGROV-1 = system: IGROV-1
SK-OV-3 = system: SK-OV-3
SW-620 = system: SW-620
OVCAR-4 = system: OVCAR-4
PC-3 = system: PC-3
SR = system: SR
SF-539 = system: SF-539
BT-549 = system: BT-549
HOP-92 = system: HOP-92
K562 = system: K562
T47D = system: T47D
LOX IMVI = system: LOX IMVI
NCI-H23 = system: NCI-H23
NCI/ADR-RES = system: NCI/ADR-RES
U-251 = system: U-251

Question: `O=C1[C@@H]2[C@@H](c3ccccc3)[C@]2(Cl)C(=O)[C@H]2[C@H](c3ccccc3)[C@@]12Cl` was tested. Which GI50 (Hs-578T) did it give?
Answer: > 100 µM (inactive)

Question: And the GI50 (UO-31)?
Answer: 57 µM (inactive)

Question: And the GI50 (A498)?
Answer: > 100 µM (inactive)

Question: What about the GI50 (SNB-75) of the same molecule?
Answer: > 100 µM (inactive)

Question: What about the GI50 (HL-60) of the same molecule?
Answer: > 100 µM (inactive)

Question: What about the GI50 (CAKI-1) of the same molecule?
Answer: > 100 µM (inactive)

Question: What about the GI50 (HCT-116) of the same molecule?
Answer: > 100 µM (inactive)

Question: And the GI50 (EKVX)?
Answer: > 100 µM (inactive)

Question: And the GI50 (DU-145)?
Answer: > 100 µM (inactive)

Question: And the GI50 (ACHN)?
Answer: > 100 µM (inactive)

Question: And the GI50 (SK-MEL-28)?
Answer: > 100 µM (inactive)

Question: What about the GI50 (MDA-MB-435) of the same molecule?
Answer: > 100 µM (inactive)

Question: What about the GI50 (SK-MEL-2) of the same molecule?
Answer: > 100 µM (inactive)

Question: And the GI50 (786-0)?
Answer: > 100 µM (inactive)

Question: What about the GI50 (OVCAR-3) of the same molecule?
Answer: > 100 µM (inactive)

Question: And the GI50 (MOLT-4)?
Answer: > 100 µM (inactive)

Question: And the GI50 (OVCAR-8)?
Answer: > 100 µM (inactive)

Question: And the GI50 (UACC-62)?
Answer: > 100 µM (inactive)

Question: And the GI50 (CCRF-CEM)?
Answer: > 100 µM (inactive)

Question: What about the GI50 (SF-295) of the same molecule?
Answer: > 100 µM (inactive)

Question: And the GI50 (NCI-H226)?
Answer: > 100 µM (inactive)

Question: And the GI50 (Malme-3M)?
Answer: > 100 µM (inactive)

Question: What about the GI50 (MCF7) of the same molecule?
Answer: > 100 µM (inactive)

Question: What about the GI50 (TK-10) of the same molecule?
Answer: > 100 µM (inactive)

Question: And the GI50 (UACC-257)?
Answer: > 100 µM (inactive)

Question: What about the GI50 (HOP-62) of the same molecule?
Answer: > 100 µM (inactive)

Question: And the GI50 (MDA-MB-231)?
Answer: > 100 µM (inactive)

Question: What about the GI50 (HT-29) of the same molecule?
Answer: > 100 µM (inactive)

Question: What about the GI50 (RXF 393) of the same molecule?
Answer: > 100 µM (inactive)

Question: And the GI50 (HCT-15)?
Answer: > 100 µM

Question: What about the GI50 (SF-268) of the same molecule?
Answer: > 100 µM (inactive)

Question: And the GI50 (KM12)?
Answer: > 100 µM (inactive)

Question: What about the GI50 (NCI-H522) of the same molecule?
Answer: > 100 µM (inactive)

Question: What about the GI50 (SNB-19) of the same molecule?
Answer: > 100 µM (inactive)

Question: And the GI50 (SN12C)?
Answer: > 100 µM (inactive)

Question: What about the GI50 (M14) of the same molecule?
Answer: > 100 µM (inactive)

Question: What about the GI50 (NCI-H460) of the same molecule?
Answer: > 100 µM (inactive)

Question: What about the GI50 (A549) of the same molecule?
Answer: > 100 µM (inactive)

Question: And the GI50 (HCC 2998)?
Answer: > 100 µM (inactive)

Question: And the GI50 (OVCAR-5)?
Answer: > 100 µM (inactive)

Question: What about the GI50 (SK-MEL-5) of the same molecule?
Answer: > 100 µM (inactive)

Question: And the GI50 (COLO 205)?
Answer: > 100 µM (inactive)

Question: And the GI50 (IGROV-1)?
Answer: > 100 µM (inactive)

Question: What about the GI50 (SK-OV-3) of the same molecule?
Answer: > 100 µM (inactive)

Question: What about the GI50 (SW-620) of the same molecule?
Answer: > 100 µM (inactive)

Question: What about the GI50 (OVCAR-4) of the same molecule?
Answer: > 100 µM (inactive)

Question: And the GI50 (PC-3)?
Answer: > 100 µM (inactive)

Question: What about the GI50 (SR) of the same molecule?
Answer: 0.189 µM (active)

Question: What about the GI50 (SF-539) of the same molecule?
Answer: > 100 µM (inactive)

Question: And the GI50 (BT-549)?
Answer: 45.8 µM (inactive)

Question: What about the GI50 (HOP-92) of the same molecule?
Answer: > 100 µM (inactive)

Question: What about the GI50 (K562) of the same molecule?
Answer: > 100 µM (inactive)

Question: What about the GI50 (T47D) of the same molecule?
Answer: > 100 µM (inactive)

Question: And the GI50 (LOX IMVI)?
Answer: > 100 µM (inactive)

Question: What about the GI50 (NCI-H23) of the same molecule?
Answer: > 100 µM (inactive)

Question: And the GI50 (NCI/ADR-RES)?
Answer: > 100 µM (inactive)

Question: And the GI50 (U-251)?
Answer: > 100 µM (inactive)

Question: With `C=C(C)CC1(O[Si](C)(C)C)C(=O)C(OCC)=C1OCC` (stereo not given) as the molecule, how does the GI50 (Hs-578T) read?
Answer: > 100 µM (inactive)

Question: And the GI50 (UO-31)?
Answer: > 100 µM (inactive)

Question: What about the GI50 (A498) of the same molecule?
Answer: > 100 µM (inactive)

Question: What about the GI50 (SNB-75) of the same molecule?
Answer: > 100 µM (inactive)

Question: What about the GI50 (HL-60) of the same molecule?
Answer: > 100 µM (inactive)

Question: What about the GI50 (CAKI-1) of the same molecule?
Answer: > 100 µM (inactive)

Question: And the GI50 (HCT-116)?
Answer: > 100 µM (inactive)

Question: What about the GI50 (EKVX) of the same molecule?
Answer: > 100 µM (inactive)

Question: What about the GI50 (DU-145) of the same molecule?
Answer: > 100 µM (inactive)

Question: And the GI50 (ACHN)?
Answer: > 100 µM (inactive)

Question: And the GI50 (SK-MEL-28)?
Answer: > 100 µM (inactive)

Question: What about the GI50 (MDA-MB-435) of the same molecule?
Answer: > 100 µM (inactive)

Question: What about the GI50 (SK-MEL-2) of the same molecule?
Answer: > 100 µM (inactive)

Question: And the GI50 (786-0)?
Answer: > 100 µM (inactive)

Question: What about the GI50 (OVCAR-3) of the same molecule?
Answer: > 100 µM (inactive)

Question: And the GI50 (MOLT-4)?
Answer: > 100 µM (inactive)

Question: What about the GI50 (OVCAR-8) of the same molecule?
Answer: > 100 µM (inactive)

Question: And the GI50 (UACC-62)?
Answer: > 100 µM (inactive)

Question: What about the GI50 (CCRF-CEM) of the same molecule?
Answer: > 100 µM (inactive)

Question: What about the GI50 (SF-295) of the same molecule?
Answer: > 100 µM (inactive)

Question: What about the GI50 (NCI-H226) of the same molecule?
Answer: > 100 µM (inactive)

Question: What about the GI50 (Malme-3M) of the same molecule?
Answer: > 100 µM (inactive)

Question: And the GI50 (MCF7)?
Answer: > 100 µM (inactive)

Question: What about the GI50 (TK-10) of the same molecule?
Answer: > 100 µM (inactive)

Question: What about the GI50 (UACC-257) of the same molecule?
Answer: > 100 µM (inactive)

Question: And the GI50 (HOP-62)?
Answer: > 100 µM (inactive)

Question: And the GI50 (MDA-MB-231)?
Answer: > 100 µM (inactive)

Question: What about the GI50 (HT-29) of the same molecule?
Answer: > 100 µM (inactive)

Question: What about the GI50 (HCT-15) of the same molecule?
Answer: > 100 µM

Question: And the GI50 (SF-268)?
Answer: > 100 µM (inactive)

Question: And the GI50 (KM12)?
Answer: > 100 µM (inactive)

Question: What about the GI50 (NCI-H522) of the same molecule?
Answer: > 100 µM (inactive)

Question: What about the GI50 (SNB-19) of the same molecule?
Answer: > 100 µM (inactive)

Question: And the GI50 (SN12C)?
Answer: > 100 µM (inactive)

Question: And the GI50 (M14)?
Answer: > 100 µM (inactive)

Question: And the GI50 (NCI-H460)?
Answer: > 100 µM (inactive)

Question: And the GI50 (A549)?
Answer: > 100 µM (inactive)

Question: And the GI50 (OVCAR-5)?
Answer: > 100 µM (inactive)

Question: What about the GI50 (SK-MEL-5) of the same molecule?
Answer: > 100 µM (inactive)

Question: And the GI50 (COLO 205)?
Answer: > 100 µM (inactive)

Question: And the GI50 (IGROV-1)?
Answer: > 100 µM (inactive)

Question: And the GI50 (SK-OV-3)?
Answer: > 100 µM (inactive)

Question: And the GI50 (SW-620)?
Answer: > 100 µM (inactive)

Question: And the GI50 (OVCAR-4)?
Answer: > 100 µM (inactive)

Question: What about the GI50 (PC-3) of the same molecule?
Answer: > 100 µM (inactive)

Question: What about the GI50 (SF-539) of the same molecule?
Answer: > 100 µM (inactive)

Question: And the GI50 (BT-549)?
Answer: > 100 µM (inactive)

Question: What about the GI50 (HOP-92) of the same molecule?
Answer: > 100 µM (inactive)

Question: And the GI50 (T47D)?
Answer: > 100 µM (inactive)

Question: What about the GI50 (LOX IMVI) of the same molecule?
Answer: > 100 µM (inactive)

Question: And the GI50 (NCI-H23)?
Answer: > 100 µM (inactive)

Question: And the GI50 (NCI/ADR-RES)?
Answer: > 100 µM (inactive)

Question: What about the GI50 (U-251) of the same molecule?
Answer: > 100 µM (inactive)
